Experimental data taken from patent US20110028686A1, “Protein binding miniature proteins” (Yale University, priority 2000, published 2011).
Values joined by “and” are separate entries in the source; they are usually repeats but may differ in a detail not shown here. Equal values may be shown once. Read-outs that look alike come from different tables or passages of the source. Peptide text beside a SMILES is read from it. * marks the point of attachment. Fluorescein(5-NHCOCH2) = O=C(C*)Nc1ccc2c(c1)C(=O)OC21c2ccc(O)cc2Oc2cc(O)ccc21

Experiments:
[1] = target: T1, HisKIX (His-tagged CBP KIX domain) (Mus musculus, UniProt P45481); assay: Equilibrium fluorescence polarization, HisKIX binding; details: 25° C.
T1 construct: The CBP KIX-coding region (residues 586 to 672) of pGEX-KT KIX 10-672; made in house; host or cells: E. coli BL21(DE3) pArg

GST-KIX = target: T2, GST-KIX (Mus musculus, UniProt P45481); assay: Fluorescence polarization, wild type GST-KIX; type: binding
T2 construct: pGST-ΔKIX(588-683) (a gift from Jennifer Nyborg); made in house; host or cells: E. coli BL21(DE3) pArg

Carbonic anhydrase II = target: T3, Carbonic anhydrase II (Homo sapiens, UniProt P00918); assay: Fluorescence polarization specificity, carbonic anhydrase II; type: binding; details: carbonic anhydrase II as target protein; read-out: Kd CA
T3 construct: purchased Sigma
Text: (§1) Given the myriad protein surfaces present in the cell, the utility of molecules that recognize protein surfaces will depend on their ability to interact selectively with the desired protein.

Calmodulin = target: T4, Calmodulin (Homo sapiens, UniProt P0DP23); assay: Fluorescence polarization specificity, calmodulin; type: binding; details: calmodulin as target protein; read-out: Kd CalM
T4 construct: purchased Sigma
Text: as §1

CBP KIX wild type = target: T5, CBP KIX wild type (Mus musculus, UniProt P45481); assay: Equilibrium fluorescence polarization, wild type CBP KIX; type: binding; details: 25° C.
T5 construct: made in house; host or cells: E. coli BL21(DE3) pArg

CBP KIX Y658A = target: T6, CBP KIX Y658A (Mus musculus, UniProt P45481, Y658A); assay: Equilibrium fluorescence polarization, CBP KIX variant Y658A; type: binding; details: 25° C.
T6 construct: made in house; host or cells: E. coli BL21(DE3) pArg

CBP KIX Y658F = target: T7, CBP KIX Y658F (Mus musculus, UniProt P45481, Y658F); assay: Equilibrium fluorescence polarization, CBP KIX variant Y658F; type: binding; details: 25° C.
T7 construct: made in house; host or cells: E. coli BL21(DE3) pArg

CBP KIX K662A = target: T8, CBP KIX K662A (Mus musculus, UniProt P45481, K662A); assay: Equilibrium fluorescence polarization, CBP KIX variant K662A; type: binding; details: 25° C.
T8 construct: made in house; host or cells: E. coli BL21(DE3) pArg

CBP KIX Y650A = target: T9, CBP KIX Y650A (Mus musculus, UniProt P45481, Y650A); assay: Equilibrium fluorescence polarization, CBP KIX variant Y650A; type: binding; details: 25° C.
T9 construct: made in house; host or cells: E. coli BL21(DE3) pArg

CBP KIX L603A = target: T10, CBP KIX L603A (Mus musculus, UniProt P45481, L603A); assay: Equilibrium fluorescence polarization, CBP KIX variant L603A; type: binding; details: 25° C.
T10 construct: made in house; host or cells: E. coli BL21(DE3) pArg

CBP KIX LL652-3AA = target: T11, CBP KIX LL652-3AA (Mus musculus, UniProt P45481, L652A/L653A); assay: Equilibrium fluorescence polarization, CBP KIX variant LL652-3AA; type: binding; details: 25° C.
T11 construct: made in house; host or cells: E. coli BL21(DE3) pArg

CBP KIX K606A = target: T12, CBP KIX K606A (Mus musculus, UniProt P45481, K606A); assay: Equilibrium fluorescence polarization, CBP KIX variant K606A; type: binding; details: 25° C.
T12 construct: made in house; host or cells: E. coli BL21(DE3) pArg

CBP KIX I657A = target: T13, CBP KIX I657A (Mus musculus, UniProt P45481, I657A); assay: Equilibrium fluorescence polarization, CBP KIX variant I657A; type: binding; details: 25° C.
T13 construct: made in house; host or cells: E. coli BL21(DE3) pArg

CBP KIX L599A = target: T14, CBP KIX L599A (Mus musculus, UniProt P45481, L599A); assay: Equilibrium fluorescence polarization, CBP KIX variant L599A; type: binding; details: 25° C.
T14 construct: made in house; host or cells: E. coli BL21(DE3) pArg

CBP KIX Q661A = target: T15, CBP KIX Q661A (Mus musculus, UniProt P45481, Q661A); assay: Equilibrium fluorescence polarization, CBP KIX variant Q661A; type: binding; details: 25° C.
T15 construct: made in house; host or cells: E. coli BL21(DE3) pArg

CBP KIX E655A = target: T16, CBP KIX E655A (Mus musculus, UniProt P45481, E655A); assay: Equilibrium fluorescence polarization, CBP KIX variant E655A; type: binding; details: 25° C.
T16 construct: made in house; host or cells: E. coli BL21(DE3) pArg

CBP KIX I660A = target: T17, CBP KIX I660A (Mus musculus, UniProt P45481, I660A); assay: Equilibrium fluorescence polarization, CBP KIX variant I660A; type: binding; details: 25° C.
T17 construct: made in house; host or cells: E. coli BL21(DE3) pArg
T17 sequence (P45481 586-665 I660A limits assumed): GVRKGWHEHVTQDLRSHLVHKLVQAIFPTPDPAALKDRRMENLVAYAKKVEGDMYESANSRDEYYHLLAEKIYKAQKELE

T1 sequence (P45481 586-672): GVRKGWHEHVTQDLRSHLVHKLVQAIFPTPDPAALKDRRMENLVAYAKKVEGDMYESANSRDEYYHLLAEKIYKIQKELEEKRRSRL
T7 sequence (P45481 586-665 Y658F limits assumed): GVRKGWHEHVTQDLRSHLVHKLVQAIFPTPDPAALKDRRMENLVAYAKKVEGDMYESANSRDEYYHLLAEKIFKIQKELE
T12 sequence (P45481 586-665 K606A limits assumed): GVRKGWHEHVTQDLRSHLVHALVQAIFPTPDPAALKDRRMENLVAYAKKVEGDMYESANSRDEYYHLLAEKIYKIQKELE
T15 sequence (P45481 586-665 Q661A limits assumed): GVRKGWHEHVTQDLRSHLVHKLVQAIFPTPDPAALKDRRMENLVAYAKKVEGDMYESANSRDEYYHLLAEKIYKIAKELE
T2 sequence (P45481 588-683): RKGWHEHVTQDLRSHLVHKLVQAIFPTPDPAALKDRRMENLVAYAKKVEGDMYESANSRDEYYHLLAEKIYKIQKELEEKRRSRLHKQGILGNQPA
T8 sequence (P45481 586-665 K662A limits assumed): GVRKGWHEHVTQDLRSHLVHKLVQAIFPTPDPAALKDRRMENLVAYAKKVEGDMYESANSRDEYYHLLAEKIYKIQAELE
T16 sequence (P45481 586-665 E655A limits assumed): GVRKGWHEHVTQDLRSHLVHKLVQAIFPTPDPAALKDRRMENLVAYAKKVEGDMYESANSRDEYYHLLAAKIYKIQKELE
T11 sequence (P45481 586-665 L652A/L653A): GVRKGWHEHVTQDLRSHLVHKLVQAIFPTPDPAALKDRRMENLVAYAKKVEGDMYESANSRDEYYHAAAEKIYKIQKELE
T10 sequence (P45481 586-665 L603A limits assumed): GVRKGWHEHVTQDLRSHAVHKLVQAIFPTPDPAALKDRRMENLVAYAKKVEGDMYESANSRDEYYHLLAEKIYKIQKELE
T14 sequence (P45481 586-665 L599A limits assumed): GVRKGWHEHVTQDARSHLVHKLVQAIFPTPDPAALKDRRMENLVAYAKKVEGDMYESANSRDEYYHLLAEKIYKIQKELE
T13 sequence (P45481 586-665 I657A limits assumed): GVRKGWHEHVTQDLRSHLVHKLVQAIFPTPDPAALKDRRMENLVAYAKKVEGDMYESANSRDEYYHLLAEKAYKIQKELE
T6 sequence (P45481 586-665 Y658A limits assumed): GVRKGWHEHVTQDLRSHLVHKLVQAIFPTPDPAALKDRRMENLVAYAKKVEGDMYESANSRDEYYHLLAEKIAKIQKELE
T5 sequence (P45481 586-665 limits assumed): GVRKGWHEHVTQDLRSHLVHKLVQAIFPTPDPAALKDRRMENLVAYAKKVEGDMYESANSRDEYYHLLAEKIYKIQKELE
T9 sequence (P45481 586-665 Y650A limits assumed): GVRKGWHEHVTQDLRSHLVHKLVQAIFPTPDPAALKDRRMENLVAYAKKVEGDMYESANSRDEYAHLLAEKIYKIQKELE

With `CC[C@H](C)[C@H](NC(=O)CN)C(=O)N[C@@H](CO)C(=O)N[C@@H](Cc1c[nH]c2ccccc12)C(=O)N1CCC[C@H]1C(=O)N[C@H](C(=O)N[C@@H](Cc1ccccc1)C(=O)N[C@@H](CCC(=O)O)C(=O)NCC(=O)N[C@@H](CC(=O)O)C(=O)N[C@@H](CC(=O)O)C(=O)N[C@@H](C)C(=O)N1CCC[C@H]1C(=O)N[C@H](C(=O)N[C@@H](CCCNC(=N)N)C(=O)N[C@@H](CCCNC(=N)N)C(=O)N[C@@H](CC(C)C)C(=O)N[C@@H](CO)C(=O)N[C@@H](Cc1ccccc1)C(=O)N[C@@H](Cc1ccccc1)C(=O)N[C@@H](Cc1ccc(O)cc1)C(=O)N[C@H](C(=O)N[C@@H](CC(C)C)C(=O)N[C@@H](CC(C)C)C(=O)N[C@@H](CC(=O)O)C(=O)N[C@@H](CC(C)C)C(=O)N[C@@H](Cc1ccc(O)cc1)C(=O)N[C@@H](CC(C)C)C(=O)N[C@@H](CC(=O)O)C(=O)N[C@@H](C)C(=O)N1CCC[C@H]1C(=O)NCC(=O)N[C@H](C(=O)N[C@@H](CSCC(=O)Nc1ccc2c(c1)C(=O)OC21c2ccc(O)cc2Oc2cc(O)ccc21)C(N)=O)C(C)C)[C@@H](C)CC)C(C)C)[C@@H](C)O` [PPKID6] (H-GISWPTFEGDDAPVRRLSFFYILLDLYLDAPGVC(Fluorescein(5-NHCOCH2))-NH2) the Kd ([1]; fluorescein-labeled phosphopeptide, read-out: Kd HisKIX, phosphorylated peptide (P)) was 624 ± 49 nM, the Kd ([1]; label shows phosphorylated (P) or unphosphorylated (U) form, read-out: Kd HisKIX) was 1500 to 3100 nM and 1500 nM and the Kd (GST-KIX) was 714 ± 128 nM. The Kd (Carbonic anhydrase II) was 79000 ± 13000 nM, the Kd (Calmodulin) was no less than 168000 nM and the Kd (CBP KIX wild type) was 540 ± 60 nM. The Kd (CBP KIX Y658A) was 1700 ± 400 nM, the Kd (CBP KIX Y658F) was 2800 ± 400 nM and the Kd (CBP KIX K662A) was 1800 ± 300 nM. For the same molecule, the Kd (CBP KIX Y650A) was 1300 ± 200 nM, the Kd (CBP KIX L603A) was 2500 ± 300 nM and the Kd (CBP KIX LL652-3AA) was 140 ± 20 nM. It also gave a Kd (CBP KIX K606A) of 1200 ± 100 nM, a Kd (CBP KIX I657A) of 3600 ± 400 nM and a Kd (CBP KIX L599A) of 3300 ± 300 nM. The Kd (CBP KIX Q661A) was 410 ± 60 nM, the Kd (CBP KIX E655A) was 1700 ± 200 nM and the Kd (CBP KIX I660A) was 6100 ± 700 nM.
